Source: patent publication US4550102A, “Cephem compounds” (Fujisawa Pharmaceutical Co. Ltd., priority 1981, dated 1985)

What was measured:
Test in all cases: In vitro antimicrobial activity, two-fold agar-plate dilution method
Assay type in all cases: cell-based
E. coli 31 = conditions: Escherichia coli, heart infusion agar, 37° C., 20 hours, approximately 10^8 viable cells per ml, read-out: MIC (minimal inhibitory concentration)
Protocol: (§1) Test: In vitro Antimicrobial Activity
(§2) In vitro Antimicrobial activity was determined by the two-fold agar-plate dilution method as described below.
(§3) One loopful of an overnight culture of each test strain in Tripticase-soy broth (approximately 10^8 viable cells per ml) was streaked on heart infusion agar (HI-agar) containing graded concentrations of an antimicrobial agent, and the minimal inhibitory concentration (MIC) was expressed in term of μg/ml after incubation at 37° C. for 20 hours.

K. pneumoniae 20 = conditions: Klebsiella pneumoniae, heart infusion agar, 37° C., 20 hours, approximately 10^8 viable cells per ml, read-out: MIC (minimal inhibitory concentration)
Protocol: as §1, §2, §3

E. coli NIHJ JC - 2 = conditions: Escherichia coli, heart infusion agar, 37° C., 20 hours, approximately 10^8 viable cells per ml, read-out: MIC (minimal inhibitory concentration)
Protocol: as §1, §2, §3

Measured: MIC

CO/N=C(\C(=O)NC1C(=O)N2C(C(=O)[O-])=C(C[n+]3cccc(N)c3)CSC12)c1csc(N)n1 (stereo not drawn) [Compound A, 7-[2-Methoxyimino-2-(2-aminothiazol-4-yl)acetamido]-3-(3-amino-1-pyridiniomethyl)-3-cephem-4-carboxylate (syn isomer)]
< 0.025 mg/L: all assays above
